ChEMBL document CHEMBL1201862, “PubChem BioAssay data set” (2004)
Active and inactive are the calls of the source.

Legend:
[1] = human group III sPLA2 inhibitors, dose response, biochemical, QFRET, IC50 (AID 743457);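 further: green fluorescence rise as the enzyme cleaves BODIPY PC-A2 in liposomes; potency for inhibition of the enzyme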
[2] = molecular target: T1, Trace amine-associated receptor 1 (Homo sapiens, UniProt Q96RJ0); experiment: Fluorescence-based cell-based high throughput dose response assay to identify antagonists of the human trace amine associated receptor 1 (TAAR1).; assay type: functional
T1 sequence (Q96RJ0 whole entry): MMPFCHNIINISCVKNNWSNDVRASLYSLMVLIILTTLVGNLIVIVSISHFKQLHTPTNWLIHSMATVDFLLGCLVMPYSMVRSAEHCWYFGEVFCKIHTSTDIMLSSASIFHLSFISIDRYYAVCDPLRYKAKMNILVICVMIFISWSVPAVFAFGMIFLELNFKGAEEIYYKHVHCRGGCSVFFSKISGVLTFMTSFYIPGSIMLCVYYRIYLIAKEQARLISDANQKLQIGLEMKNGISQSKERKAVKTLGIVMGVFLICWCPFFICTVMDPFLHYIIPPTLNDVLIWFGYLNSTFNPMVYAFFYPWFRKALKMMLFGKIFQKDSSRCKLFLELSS

[3] = inhibitors of intracellular T. cruzi replication, confirmation, NIH3T3 host cells, beta-gal luminescence (AID 2044); assay type: functional, cell-based;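 further: intracellular parasites grown in NIH/3T3 mouse fibroblasts as host cells; luminescent beta-galactosidase reporter signal from transgenic T. cruzi replicating inside host cells; inhibitors lower the luminescence signal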
[4] = Counterscreen for antagonists of the human trace amine associated receptor 1 (hTAAR1): Fluorescence-based cell-based high throughput dose response assay to identify nonselective Ga16 antagonists.; assay type: functional
[5] = molecular target: T1, Trace amine-associated receptor 1; experiment: Counterscreen for antagonists of the human trace amine associated receptor 1 (hTAAR1): Fluorescence-based cell-based high throughput dose response assay to identify TAAR1 Agonists.; assay type: functional
[6] = cytotoxicity toward NIH3T3 fibroblasts, dose response, counter-screen, cell-based, ATP luminescence, mouse fibroblasts (AID 2010); assay type: functional;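 further: cells exposed to compound for about 90 hours before reading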
[7] = Counterscreen for […] of the human trace amine associated receptor 1 (TAAR1): Fluorescence-based cell-based high throughput dose response assay to identify nonselective Ga16 agonists.; assay type: functional
[8] = Counterscreen for activators of the function of SWI/SNF related, matrix associated, actin dependent regulator of chromatin, subfamily a, member 2 (SMARCA2, BRM): Luminescence-based cell-based high throughput dose response assay to identify non-selective compounds using the VP16 reporter assay.; assay type: functional
[9] = molecular target: SWI/SNF-related matrix-associated actin-dependent regulator of chromatin subfamily A member 2 (Homo sapiens, UniProt P51531); experiment: Luminescence-based cell-based high throughput dose response assay to identify activators of the function of SWI/SNF related, matrix associated, actin dependent regulator of chromatin, subfamily a, member 2 (SMARCA2, BRM).; assay type: functional
[10] = molecular target: T2, Short transient receptor potential channel 4 (Mus musculus, UniProt Q9QUQ5); experiment: mouse TRPC4 channel inhibitors, dose response, cell-based, HEK293 TRPC4/mu-opioid, Fluo-4 calcium (AID 434942); assay type: functional;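 further: potency of inhibitors blocking the TRPC4 calcium response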
T2 sequence (Q9QUQ5 whole entry): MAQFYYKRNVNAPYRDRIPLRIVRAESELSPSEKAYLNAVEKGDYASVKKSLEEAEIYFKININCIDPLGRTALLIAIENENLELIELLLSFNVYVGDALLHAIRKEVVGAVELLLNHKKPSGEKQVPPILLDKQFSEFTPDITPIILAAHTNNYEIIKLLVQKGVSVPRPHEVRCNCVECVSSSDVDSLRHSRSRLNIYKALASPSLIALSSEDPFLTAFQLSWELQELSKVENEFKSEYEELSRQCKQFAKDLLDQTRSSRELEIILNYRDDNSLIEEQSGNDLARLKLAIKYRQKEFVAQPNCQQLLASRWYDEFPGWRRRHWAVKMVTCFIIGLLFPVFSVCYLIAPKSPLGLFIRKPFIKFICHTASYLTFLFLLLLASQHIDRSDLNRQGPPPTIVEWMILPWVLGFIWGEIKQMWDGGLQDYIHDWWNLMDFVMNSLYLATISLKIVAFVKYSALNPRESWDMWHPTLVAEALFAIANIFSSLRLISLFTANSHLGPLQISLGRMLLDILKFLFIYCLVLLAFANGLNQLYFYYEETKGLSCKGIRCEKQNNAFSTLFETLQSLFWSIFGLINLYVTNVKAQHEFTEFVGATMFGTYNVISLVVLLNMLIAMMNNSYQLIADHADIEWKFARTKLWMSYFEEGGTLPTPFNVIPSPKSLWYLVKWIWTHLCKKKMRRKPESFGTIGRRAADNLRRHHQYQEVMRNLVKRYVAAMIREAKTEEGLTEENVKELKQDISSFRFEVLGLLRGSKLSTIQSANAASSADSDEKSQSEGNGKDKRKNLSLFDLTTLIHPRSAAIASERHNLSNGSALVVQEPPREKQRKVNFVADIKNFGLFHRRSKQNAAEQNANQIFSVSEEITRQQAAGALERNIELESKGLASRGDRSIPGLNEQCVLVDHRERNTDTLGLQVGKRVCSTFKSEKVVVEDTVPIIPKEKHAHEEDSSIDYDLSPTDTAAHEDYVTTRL

[11] = HEK293T cytotoxicity, dose response, cytotoxicity control for miR-122 modulator project, cell-based, inhibitor set, cherry-pick, set 2 (AID 720697); assay type: functional
[12] = molecular target: T3, Caspase-3 (Homo sapiens, UniProt P42574); experiment: Dose-response confirmation of uHTS inhibitor hits of Sentrin-Specific Protease 8 in a Caspase-3 Fluorescence assay.; assay type: functional
T3 sequence (P42574 whole entry): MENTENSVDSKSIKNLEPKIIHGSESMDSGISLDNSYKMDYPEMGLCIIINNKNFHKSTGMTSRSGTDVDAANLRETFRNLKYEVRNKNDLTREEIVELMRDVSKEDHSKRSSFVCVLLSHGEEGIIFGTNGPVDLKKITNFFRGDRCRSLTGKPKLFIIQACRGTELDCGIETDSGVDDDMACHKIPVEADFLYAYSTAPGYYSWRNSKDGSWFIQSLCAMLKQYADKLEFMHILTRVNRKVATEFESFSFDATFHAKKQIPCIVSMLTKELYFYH

[13] = molecular target: T4, Polyadenylate-binding protein 1 (Homo sapiens, UniProt P11940); experiment: PABP1 MLLE–PAM2 binding inhibitor potency, dose response, biochemical, fluorescence polarization, FITC-PAM2 peptide (AID 602259); assay type: functional; settings: read-out: IC50_Mean
[14] = molecular target: T5, Sentrin-specific protease 8 (Homo sapiens, UniProt Q96LD8); assay type: functional
T5 sequence (Q96LD8 whole entry): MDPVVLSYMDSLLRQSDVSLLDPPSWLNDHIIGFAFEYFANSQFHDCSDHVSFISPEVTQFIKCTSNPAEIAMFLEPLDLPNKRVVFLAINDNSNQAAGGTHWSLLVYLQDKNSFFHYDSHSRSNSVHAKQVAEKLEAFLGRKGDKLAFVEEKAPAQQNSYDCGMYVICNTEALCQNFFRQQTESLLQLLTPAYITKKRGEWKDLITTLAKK

[15] = molecular target: T5, Sentrin-specific protease 8; assay type: functional; remark: listed apart in the source
[16] = molecular target: T4, Polyadenylate-binding protein 1; experiment: PABP1 MLLE–PAM2 interaction inhibitors, dose response, miRNA deadenylation inhibitor project, biochemical, fluorescence polarization, Cy5-PAM2 peptide, secondary (AID 602260); assay type: functional; settings: read-out: IC50_Mean
[17] = HEK293T cell viability, dose response, counter-screen for EBV LMP1 inhibitor project, CellTiter-Glo luminescence, dry powder (AID 624372); assay type: functional, HEK293
[18] = tested on: SN12K1; experiment: cells; assay type: functional; settings: Homo sapiens
[19] = tested on: P388; experiment: cells; assay type: functional; settings: Mus musculus
[20] = tested on: P388/ADR; experiment: cells; assay type: functional; settings: Mus musculus
[21] = CRF-BP/CRF-R2 complex antagonists, dose response, cell-based, uHTS hits, 384-well (AID 651639); assay type: functional, Homo sapiens; settings: read-out: IC50_Mean
[22] = molecular target: T6, Corticotropin-releasing factor receptor 2/Corticotropin-releasing factor-binding protein (Homo sapiens, UniProt P24387+Q13324); experiment: activators of CRF receptor 2 with binding protein – uHTS hits, confirmation (AID 602473); assay type: functional; settings: read-out: EC50_Mean
T6 sequence (Q13324 whole entry): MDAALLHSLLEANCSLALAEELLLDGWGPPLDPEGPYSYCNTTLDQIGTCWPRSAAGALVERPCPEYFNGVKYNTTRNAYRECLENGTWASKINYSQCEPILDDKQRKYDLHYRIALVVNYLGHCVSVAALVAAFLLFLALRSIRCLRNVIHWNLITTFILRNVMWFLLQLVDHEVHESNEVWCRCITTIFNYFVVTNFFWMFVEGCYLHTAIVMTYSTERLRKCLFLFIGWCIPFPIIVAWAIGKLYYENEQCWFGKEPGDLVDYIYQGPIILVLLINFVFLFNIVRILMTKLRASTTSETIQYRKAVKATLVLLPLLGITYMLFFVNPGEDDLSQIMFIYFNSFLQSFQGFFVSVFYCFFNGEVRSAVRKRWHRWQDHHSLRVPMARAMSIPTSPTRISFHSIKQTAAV
T6 sequence (P24387 whole entry): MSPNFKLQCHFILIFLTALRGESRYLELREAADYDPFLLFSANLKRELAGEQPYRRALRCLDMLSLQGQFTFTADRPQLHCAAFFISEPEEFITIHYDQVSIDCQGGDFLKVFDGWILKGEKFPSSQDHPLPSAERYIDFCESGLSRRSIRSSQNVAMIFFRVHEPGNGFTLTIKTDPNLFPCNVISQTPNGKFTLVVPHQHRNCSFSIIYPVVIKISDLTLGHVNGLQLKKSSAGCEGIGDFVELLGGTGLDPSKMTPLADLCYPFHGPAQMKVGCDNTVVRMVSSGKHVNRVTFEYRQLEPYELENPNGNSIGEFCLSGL

[23] = molecular target: T6, Corticotropin-releasing factor receptor 2/Corticotropin-releasing factor-binding protein; experiment: Dose Response confirmation of uHTS hits for small molecule antagonists of the CRF-binding protein and CRF-R2 receptor complex.; assay type: functional; settings: read-out: IC50_Mean

T4 sequence (P11940 whole entry): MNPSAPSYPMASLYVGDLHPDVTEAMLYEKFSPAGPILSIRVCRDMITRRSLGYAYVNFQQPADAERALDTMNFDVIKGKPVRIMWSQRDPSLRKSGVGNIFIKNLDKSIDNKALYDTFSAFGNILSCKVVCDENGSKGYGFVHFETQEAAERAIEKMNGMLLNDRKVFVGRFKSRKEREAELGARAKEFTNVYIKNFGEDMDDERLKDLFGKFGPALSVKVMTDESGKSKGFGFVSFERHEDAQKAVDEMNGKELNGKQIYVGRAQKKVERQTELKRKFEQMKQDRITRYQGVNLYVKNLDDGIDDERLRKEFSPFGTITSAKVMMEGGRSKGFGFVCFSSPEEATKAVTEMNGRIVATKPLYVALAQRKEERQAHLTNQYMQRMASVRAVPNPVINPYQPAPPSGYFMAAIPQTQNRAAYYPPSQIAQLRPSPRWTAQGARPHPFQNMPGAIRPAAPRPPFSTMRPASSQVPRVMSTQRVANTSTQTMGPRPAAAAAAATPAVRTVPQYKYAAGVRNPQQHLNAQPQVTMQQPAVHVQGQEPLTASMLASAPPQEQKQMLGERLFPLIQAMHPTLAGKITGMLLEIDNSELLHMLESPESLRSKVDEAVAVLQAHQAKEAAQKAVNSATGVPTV
Sequence of SWI/SNF-related matrix-associated actin-dependent regulator of chromatin subfamily A member 2 (P51531 whole entry): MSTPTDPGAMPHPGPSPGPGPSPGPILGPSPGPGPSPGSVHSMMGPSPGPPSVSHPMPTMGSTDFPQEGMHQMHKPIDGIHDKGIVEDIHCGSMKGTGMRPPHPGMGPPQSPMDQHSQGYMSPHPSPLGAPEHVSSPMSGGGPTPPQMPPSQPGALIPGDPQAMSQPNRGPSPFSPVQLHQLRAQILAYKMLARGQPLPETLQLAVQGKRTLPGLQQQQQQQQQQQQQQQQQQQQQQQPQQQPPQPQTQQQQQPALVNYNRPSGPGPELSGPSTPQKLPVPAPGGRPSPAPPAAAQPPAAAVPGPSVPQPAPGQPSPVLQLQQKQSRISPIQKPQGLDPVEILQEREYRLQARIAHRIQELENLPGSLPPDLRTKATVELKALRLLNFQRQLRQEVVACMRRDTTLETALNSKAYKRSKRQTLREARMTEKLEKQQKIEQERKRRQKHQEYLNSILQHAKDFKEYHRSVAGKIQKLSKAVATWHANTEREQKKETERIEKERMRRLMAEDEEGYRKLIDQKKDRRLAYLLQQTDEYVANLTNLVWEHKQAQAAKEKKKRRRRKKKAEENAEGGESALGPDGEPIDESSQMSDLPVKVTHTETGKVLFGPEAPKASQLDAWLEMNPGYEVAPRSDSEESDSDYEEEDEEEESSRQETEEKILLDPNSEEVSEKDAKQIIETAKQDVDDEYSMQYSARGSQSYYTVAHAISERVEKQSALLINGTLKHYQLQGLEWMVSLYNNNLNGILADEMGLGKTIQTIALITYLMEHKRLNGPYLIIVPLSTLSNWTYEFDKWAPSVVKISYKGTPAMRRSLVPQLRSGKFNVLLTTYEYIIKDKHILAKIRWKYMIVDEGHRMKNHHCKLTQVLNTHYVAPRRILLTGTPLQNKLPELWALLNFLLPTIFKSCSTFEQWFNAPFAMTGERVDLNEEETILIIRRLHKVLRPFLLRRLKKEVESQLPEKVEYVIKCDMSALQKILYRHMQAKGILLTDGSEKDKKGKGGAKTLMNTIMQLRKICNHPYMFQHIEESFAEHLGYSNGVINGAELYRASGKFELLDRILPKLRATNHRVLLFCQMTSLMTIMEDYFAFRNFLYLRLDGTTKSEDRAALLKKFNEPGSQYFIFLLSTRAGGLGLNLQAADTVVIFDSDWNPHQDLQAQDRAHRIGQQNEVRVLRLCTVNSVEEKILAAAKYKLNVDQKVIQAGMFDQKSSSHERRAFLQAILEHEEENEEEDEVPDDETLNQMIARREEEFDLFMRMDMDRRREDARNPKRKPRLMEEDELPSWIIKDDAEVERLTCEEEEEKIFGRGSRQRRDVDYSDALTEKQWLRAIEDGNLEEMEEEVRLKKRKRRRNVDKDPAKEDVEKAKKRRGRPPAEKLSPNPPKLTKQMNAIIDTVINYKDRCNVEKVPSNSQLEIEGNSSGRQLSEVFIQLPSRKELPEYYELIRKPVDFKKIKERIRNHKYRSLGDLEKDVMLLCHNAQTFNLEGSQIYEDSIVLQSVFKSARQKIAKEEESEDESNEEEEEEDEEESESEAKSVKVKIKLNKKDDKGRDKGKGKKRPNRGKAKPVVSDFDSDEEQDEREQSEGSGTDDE

For `Cc1cccc(NC(=O)NNC(=O)c2ccc3ccccc3c2O)c1`, the IC50 [1] was > 122 µM (inactive).

In the case of `CN(CC(=O)Nc1cccc(F)c1)C(=O)c1ccccc1OCC(=O)Nc1cccc(C(F)(F)F)c1`, the IC50 [2] is reported as 6.89 µM (active), the EC50 [3] is reported as 0.775 µM (active) and the IC50 [4] is reported as 13.5 µM (inactive). For the same molecule, the EC50 [5] was > 29.9 µM (inactive), the EC50 [6] was > 60 µM (not active) and the EC50 [7] was > 29.9 µM (inactive).

With `Cn1cc(-c2nc3ccccc3[nH]2)c2ccccc21` the EC50 [8] was > 91.2 µM (inactive), the EC50 [9] was > 91.2 µM (inactive) and the EC50 [10] was 3.76 µM (active).

With `Cn1c(-c2ccc(N)cc2)nc2ccccc21` the AC50 [11] was 9.34 µM (active).

For `Cc1ccc(N2C(=O)[C@@H]3[C@H](C2=O)C2c4ccccc4C=CN2[C@@H]3C(=O)c2ccco2)cc1` (stereo partly drawn), the IC50 [12] was 4.41 µM (active), the IC50 [13] was > 66 µM (inactive) and the IC50 [14] was 0.785 µM (active). The IC50 [15] was 5.38 µM (active) and the IC50 [16] was > 66 µM (inactive).

In the case of `C/C(=N\NC(=S)N1CCN(C2CCCCCC2)CC1)c1ccccn1`, the AbsAC35 [17] is reported as 162.11 µM, the GI50 [18] is reported as 0.01 µM (active) and the GI50 [19] is reported as < 0.01 µM (active). The GI50 [20] was < 0.01 µM (active).

In the case of `COC(=O)C1=C/C=C\CN(C(c2ccccc2)c2ccccc2)/C=C\1C(=O)OC`, the IC50 [21] is reported as > 20 µM (inactive), the EC50 [22] is reported as > 53 µM (inactive) and the IC50 [23] is reported as 5.7 µM (active).
